Test results from patent US20220081435A1, “ANDROGEN RECEPTOR PROTEIN DEGRADERS” (THE REGENTS OF THE UNIVERSITY OF MICHIGAN, priority 2019, published 2022).

Experiments:
[1] = test system: AR-regulated gene expression (PSA, TMPRSS2, FKBP5); assay: Suppression of AR-regulated gene expression in LNCaP cells (qRT-PCR); type: cell-based
Procedure: (§1) Quantitative Real-Time Polymerase Chain Reaction (qRT-PCR). Real-time PCR was performed using QuantStudio 7 Flex Real-Time PCR System as described previously.^43,44 RNA was purified using the Qiagen RNase-Free DNase set, then after quantification, the extracted RNA was converted to cDNA using High Capacity RNA-to-cDNA Kit from Applied Biosystems (Thermo Fisher Scientific). The levels of AR, TMPRSS2, FKBP5, PSA(KLK3) and GAPDH were quantified using TaqMan Fast Advanced Master Mix from Applied Biosystems. The level of gene expression was evaluated using comparative CT method, which compares the CT value to GAPDH (ACT) and then to vehicle control (ΔΔCT).

VCaP cells = assay: Cell growth inhibition in VCaP cells (WST-8 assay); type: cell-based
Procedure: VCaP were treated with different compounds in charcoal stripped medium in the presence of 0.1 nM of AR agonist R1881 for 7 days. Cell viability was determined by a WST-8 assay.
Cell lines and Cell Culture: All the LNCaP, VCaP and 22RV1 cells used were purchased from American Type Culture Collection (ATCC). LNCaP and 22RV1 cells were grown in RPMI 1640 (Invitrogen), VCaP cells were grown in DMEM with Glutamax (Invitrogen). All of the cells were supplemented with 10% fetal bovine serum (Invitrogen) at 37° C. in a humidified 5% CO2 incubator.

[2] = test system: AR-regulated gene expression (PSA, TMPRSS2, FKBP5, ERG); assay: Suppression of AR-regulated gene expression in VCaP cells (qRT-PCR); type: cell-based
Procedure: as §1

[3] = target: T1, AR protein in VCaP xenograft tumor tissue (Homo sapiens, UniProt P10275); assay: Pharmacodynamics in VCaP xenograft tumor tissue in mice (immunoblotting); type: in vivo; conditions: SCID mice, single dose 50 mg/kg IP
T1 construct: resected control and treated VCaP xenograft tumor tissues were ground into powder in liquid nitrogen and lysed; from tissue; host or cells: VCaP xenograft tumor tissue from SCID mice
T1 sequence (P10275 1-920): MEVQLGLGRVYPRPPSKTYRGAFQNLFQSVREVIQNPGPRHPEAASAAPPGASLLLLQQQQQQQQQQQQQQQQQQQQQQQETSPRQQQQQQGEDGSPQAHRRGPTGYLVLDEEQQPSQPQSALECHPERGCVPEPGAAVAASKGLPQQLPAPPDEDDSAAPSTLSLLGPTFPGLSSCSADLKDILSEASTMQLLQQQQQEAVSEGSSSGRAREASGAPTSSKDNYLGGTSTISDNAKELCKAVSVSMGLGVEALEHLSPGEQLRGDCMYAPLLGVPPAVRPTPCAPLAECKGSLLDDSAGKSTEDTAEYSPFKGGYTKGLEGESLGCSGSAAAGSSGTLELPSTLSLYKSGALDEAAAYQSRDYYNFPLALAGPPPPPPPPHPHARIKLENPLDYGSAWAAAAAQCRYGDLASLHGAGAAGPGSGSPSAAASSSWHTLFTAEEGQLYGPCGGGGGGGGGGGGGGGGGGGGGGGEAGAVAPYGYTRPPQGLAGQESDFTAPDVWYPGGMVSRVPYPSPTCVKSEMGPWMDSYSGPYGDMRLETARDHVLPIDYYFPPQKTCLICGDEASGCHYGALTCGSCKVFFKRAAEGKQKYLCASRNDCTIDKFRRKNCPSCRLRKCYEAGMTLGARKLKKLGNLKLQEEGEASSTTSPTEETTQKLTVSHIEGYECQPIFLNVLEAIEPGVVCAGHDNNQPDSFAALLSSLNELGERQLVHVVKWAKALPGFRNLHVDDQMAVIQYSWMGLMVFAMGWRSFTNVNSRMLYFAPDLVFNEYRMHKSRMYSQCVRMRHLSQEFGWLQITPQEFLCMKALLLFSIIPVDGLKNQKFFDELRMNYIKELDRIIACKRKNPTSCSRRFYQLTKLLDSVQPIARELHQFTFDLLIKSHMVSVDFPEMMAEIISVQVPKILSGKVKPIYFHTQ
Procedure: FIG. 9 is an image of an immunoblotting analysis of a pharmacodynamics (PD) study of AR degrader 34 (ARD-69) in VCaP tumor tissue in mice. SCID mice bearing xenograft VCaP tumors were treated with a single dose of 34 (ARD-69) (IP, 50 mg/kg). Tumor tissues were harvested at the indicated time points for immunoblotting.
Pharmacodynamics Studies in the VCaP Xenograft Models in Mice. All animal experiments were performed under the guidelines of the University of Michigan Committee for Use and Care of Animals and using an approved animal protocol (PI, Shaomeng Wang). Xenograft tumors were established by injecting 5×10^6 VCaP cells in 50% Matrigel subcutaneously on the dorsal side of severe combined immunodeficient (SCID) mice, obtained from Charles River, one tumor per mouse. When tumors reached ˜100 mm^3, mice were randomly assigned to treatment and vehicle control groups. Animals were monitored daily for any signs of toxicity and weighed 2-3 times per week during the treatment period and at least weekly after the treatment ended. For pharmacodynamics analysis, resected control and treated VCaP xenograft tumor tissues were ground into powder in liquid nitrogen and lysed in CST lysis buffer with halt proteinase inhibitors. Twenty micrograms of whole tumor clarified lysates were separated on 4-20% or 4-12% Novex gels. Western blots were performed as detailed in the previous section.

22RV1 cells = assay: Cell growth inhibition in 22RV1 cells (WST-8 assay); type: cell-based
Procedure: 22RV1 cells were treated with a regular culture medium for 7 days. Cell viability was determined by a WST-8 assay.
Cell lines and Cell Culture: All the LNCaP, VCaP and 22RV1 cells used were purchased from American Type Culture Collection (ATCC). […] All of the cells were supplemented with 10% fetal bovine serum (Invitrogen) at 37° C. in a humidified 5% CO2 incubator.

Structure (SMILES): Cc1ncsc1-c1ccc([C@H](CC(=O)N2CCC(N3CCC(C#Cc4ccc(C(=O)NC5C(C)(C)C(Oc6ccc(C#N)c(Cl)c6)C5(C)C)cc4)CC3)CC2)NC(=O)[C@@H]2C[C@@H](O)CN2C(=O)[C@@H](NC(=O)C2(F)CC2)C(C)(C)C)cc1 (stereo partly drawn) [Compound 34, (2S,4R)—N—((S)-3-(4-((4-(((1r,3r)-3-(3-Chloro-4-cyanophenoxy)-2,2,4,4-tetramethyl-cyclobutyl)carbamoyl)phenyl)ethynyl)-[1,4′-bipiperidin]-1′-yl)-1-(4-(4-methylthiazol-5-yl)phenyl)-3-oxopropyl)-1-((S)-2-(1-fluorocyclopropane-1-carboxamido)-3,3-dimethylbutanoyl)-4-hydroxypyrrolidine-2-carboxamide]
- Potency relative to AR antagonist 6 in suppressing AR-regulated gene transcription [1]: > 100 times
- Reduction of mRNA level of both PSA and TMPRSS2 genes ([1]; 10 nM): > 50%
- Expression of PSA, TMPRSS2 and FKBP5 genes ([1]; dose-dependent, data not shown): effectively suppressed
- Potency relative to enzalutamide (4) and compound 6 in cell growth inhibition (VCaP cells): > 100 times
- IC50 (VCaP cells; charcoal stripped medium, 0.1 nM R1881, 7 days): 0.34 nM
- Potency relative to AR antagonist 6 in suppressing AR-regulated gene transcription [2]: > 100 times
- Reduction of mRNA level of both PSA and TMPRSS2 genes ([2]; 10 nM): > 50%
- ERG gene expression ([2]; dose-dependent): suppresses
- Expression of PSA, TMPRSS2 and FKBP5 genes ([2]; dose-dependent, data not shown): effectively suppressed
- Persistence of AR protein reduction [3]: at least 48 h
- Persistence of PSA protein reduction [3]: 24 to 48 h
- Level of PSA protein in tumor tissue ([3]; at the 3 h time-point): effectively reduced
- Level of AR protein in tumor tissue ([3]; starting at 3 h): effectively reduced
- Potency relative to enzalutamide (4) and compound 6 in cell growth inhibition (22RV1 cells; 22RV1): > 100 times
- IC50 (22RV1 cells; 22RV1, regular culture medium, 7 days): 183 nM
